Experimental data from patent US20230085307A1, “PYRIDAZINONE COMPOUND AND HERBICIDE” (NISSAN CHEMICAL CORPORATION, priority 2019, published 2023).

Columns and labels:
late watergrass = assay: Test Example 1: herbicidal activity, application before weed generation under submerged conditions (Table 16, symbol A); type: in vivo, late watergrass (Echinochloa oryzicola); settings: amount of applied herbicide 320 g/ha
How it was run: (§1)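 Alluvial soil was flooded to 4 cm depth, weed seeds were sown mixed and 2.5-leaf rice seedlings were transplanted. On sowing day, the compound's emulsion, diluted in water to a set dose, was applied to the water surface. Plants grew at 25–30 °C and were scored 0–5 after three weeks.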

barnyard grass [1] = assay: Test Example 4: herbicidal effect by soil treatment (Table 19, symbol H); type: in vivo, barnyard grass (Echinochloa crus-galli); settings: amount of applied herbicide 320 g/ha
How it was run: (§2)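 Seeds were sown in sterilized diluvial soil and covered with about 1.5 cm of soil. An emulsion formulation diluted with water to a predetermined herbicide amount was sprayed evenly onto the soil surface. Plants grew in a greenhouse at 25° C. to 30° C., and the effect was scored three weeks after application using criteria from an earlier test.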

chickweed [2] = assay: Test Example 4: herbicidal effect by soil treatment (Table 19, symbol P); type: in vivo, common chickweed (Stellaria media); settings: amount of applied herbicide 320 g/ha
How it was run: as §2

persian speedwell [3] = assay: Test Example 5: herbicidal effect by foliage application, plastic box (Table 20, symbol R); type: in vivo, Persian speedwell (Veronica persica); settings: amount of applied herbicide 320 g/ha; foliage application after 14-day growth; evaluated three weeks after application
How it was run: (§3)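 Plants sown in sterilized diluvial soil and grown 14 days in a greenhouse at 25° C to 30° C, then sprayed on the foliage with the compound's emulsion diluted in water to a predetermined herbicide amount. Injury to weeds and crops scored three weeks after application on a visual rating scale.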

rice flat sedge = assay: Test Example 3: herbicidal effect by foliage application, Wagner pot (Table 18, symbol E); type: in vivo, rice flat sedge (Cyperus iria); settings: 320 g/ha
How it was run: (§4)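 Plants were sown in alluvial soil held under 0.1–0.5 cm standing water and grown 14 days in a greenhouse at 25–30 °C. An emulsifiable formulation, water-diluted to the set dose, was then sprayed onto the foliage, and effects were scored three weeks later using previously defined criteria.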

velvetleaf [4] = assay: Test Example 4: herbicidal effect by soil treatment (Table 19, symbol M); type: in vivo, velvetleaf (Abutilon theophrasti); settings: amount of applied herbicide 320 g/ha
How it was run: as §2

lambsquarters [5] = assay: Test Example 4: herbicidal effect by soil treatment (Table 19, symbol O); type: in vivo, lambsquarters (Chenopodium album); settings: amount of applied herbicide 320 g/ha
How it was run: as §2

southern crabgrass [6] = assay: Test Example 4: herbicidal effect by soil treatment (Table 19, symbol F); type: in vivo, southern crabgrass (Digitaria ciliaris); settings: amount of applied herbicide 320 g/ha
How it was run: as §2

Italian ryegrass [7] = assay: Test Example 4: herbicidal effect by soil treatment (Table 19, symbol K); type: in vivo, Italian ryegrass (Lolium multiflorum); settings: amount of applied herbicide 320 g/ha
How it was run: as §2

southern crabgrass [8] = assay: Test Example 5: herbicidal effect by foliage application, plastic box (Table 20, symbol F); type: in vivo, southern crabgrass (Digitaria ciliaris); settings: amount of applied herbicide 320 g/ha; foliage application after 14-day growth; evaluated three weeks after application
How it was run: as §3

windgrass [9] = assay: Test Example 5: herbicidal effect by foliage application, plastic box (Table 20, symbol L); type: in vivo, windgrass (Apera spica-venti); settings: amount of applied herbicide 320 g/ha; foliage application after 14-day growth; evaluated three weeks after application
How it was run: as §3

persian speedwell [10] = assay: Test Example 4: herbicidal effect by soil treatment (Table 19, symbol R); type: in vivo, Persian speedwell (Veronica persica); settings: amount of applied herbicide 320 g/ha
How it was run: as §2

Chinese sprangletop = assay: Test Example 3: herbicidal effect by foliage application, Wagner pot (Table 18, symbol D); type: in vivo, chinese sprangletop (Leptochloa chinensis); settings: 320 g/ha
How it was run: as §4

Japanese bulrush = assay: Test Example 1: herbicidal activity, application before weed generation under submerged conditions (Table 16, symbol B); type: in vivo, Japanese bulrush (Schoenoplectus juncoides); settings: amount of applied herbicide 320 g/ha
How it was run: as §1

wild oat [11] = assay: Test Example 4: herbicidal effect by soil treatment (Table 19, symbol I); type: in vivo, wild oat (Avena fatua); settings: amount of applied herbicide 320 g/ha
How it was run: as §2

redroot pigweed [12] = assay: Test Example 5: herbicidal effect by foliage application, plastic box (Table 20, symbol N); type: in vivo, redroot pigweed (Amaranthus retroflexus); settings: amount of applied herbicide 320 g/ha; foliage application after 14-day growth; evaluated three weeks after application
How it was run: as §3

windgrass [13] = assay: Test Example 4: herbicidal effect by soil treatment (Table 19, symbol L); type: in vivo, windgrass (Apera spica-venti); settings: amount of applied herbicide 320 g/ha
How it was run: as §2

blackgrass [14] = assay: Test Example 4: herbicidal effect by soil treatment (Table 19, symbol J); type: in vivo, blackgrass (Alopecurus myosuroides); settings: amount of applied herbicide 320 g/ha
How it was run: as §2

chickweed [15] = assay: Test Example 5: herbicidal effect by foliage application, plastic box (Table 20, symbol P); type: in vivo, common chickweed (Stellaria media); settings: amount of applied herbicide 320 g/ha; foliage application after 14-day growth; evaluated three weeks after application
How it was run: as §3

oval-leafed pondweed = assay: Test Example 1: herbicidal activity, application before weed generation under submerged conditions (Table 16, symbol C); type: in vivo, oval-leafed pondweed (Monochoria vaginalis); settings: amount of applied herbicide 320 g/ha
How it was run: as §1

redroot pigweed [16] = assay: Test Example 4: herbicidal effect by soil treatment (Table 19, symbol N); type: in vivo, redroot pigweed (Amaranthus retroflexus); settings: amount of applied herbicide 320 g/ha
How it was run: as §2

Italian ryegrass [17] = assay: Test Example 5: herbicidal effect by foliage application, plastic box (Table 20, symbol K); type: in vivo, Italian ryegrass (Lolium multiflorum); settings: amount of applied herbicide 320 g/ha; foliage application after 14-day growth; evaluated three weeks after application
How it was run: as §3

blackgrass [18] = assay: Test Example 5: herbicidal effect by foliage application, plastic box (Table 20, symbol J); type: in vivo, blackgrass (Alopecurus myosuroides); settings: amount of applied herbicide 320 g/ha; foliage application after 14-day growth; evaluated three weeks after application
How it was run: as §3

green foxtail [19] = assay: Test Example 5: herbicidal effect by foliage application, plastic box (Table 20, symbol G); type: in vivo, green foxtail (Setaria viridis); settings: amount of applied herbicide 320 g/ha; foliage application after 14-day growth; evaluated three weeks after application
How it was run: as §3

lambsquarters [20] = assay: Test Example 5: herbicidal effect by foliage application, plastic box (Table 20, symbol O); type: in vivo, lambsquarters (Chenopodium album); settings: amount of applied herbicide 320 g/ha; foliage application after 14-day growth; evaluated three weeks after application
How it was run: as §3

wild oat [21] = assay: Test Example 5: herbicidal effect by foliage application, plastic box (Table 20, symbol I); type: in vivo, wild oat (Avena fatua); settings: amount of applied herbicide 320 g/ha; foliage application after 14-day growth; evaluated three weeks after application
How it was run: as §3

velvetleaf [22] = assay: Test Example 5: herbicidal effect by foliage application, plastic box (Table 20, symbol M); type: in vivo, velvetleaf (Abutilon theophrasti); settings: amount of applied herbicide 320 g/ha; foliage application after 14-day growth; evaluated three weeks after application
How it was run: as §3

green foxtail [23] = assay: Test Example 4: herbicidal effect by soil treatment (Table 19, symbol G); type: in vivo, green foxtail (Setaria viridis); settings: amount of applied herbicide 320 g/ha
How it was run: as §2

barnyard grass [24] = assay: Test Example 5: herbicidal effect by foliage application, plastic box (Table 20, symbol H); type: in vivo, barnyard grass (Echinochloa crus-galli); settings: amount of applied herbicide 320 g/ha; foliage application after 14-day growth; evaluated three weeks after application
How it was run: as §3

barnyard grass [25] = assay: Test Example 3: herbicidal effect by foliage application, Wagner pot (Table 18, symbol H); type: in vivo, barnyard grass (Echinochloa crus-galli); settings: 320 g/ha
How it was run: as §4

Row | SMILES | Herbicidal effect, A: late watergrass (late watergrass) | H: barnyard grass, herbicidal effect grade (barnyard grass [1]) | P: chickweed, herbicidal effect grade (chickweed [2]) | Herbicidal effect by foliage application, R: persian speedwell (persian speedwell [3]) | herbicidal effect on rice flat sedge (E) (rice flat sedge) | M: velvetleaf, herbicidal effect grade (velvetleaf [4]) | O: lambsquarters, herbicidal effect grade (lambsquarters [5]) | F: southern crabgrass, herbicidal effect grade (southern crabgrass [6]) | K: Italian ryegrass, herbicidal effect grade (Italian ryegrass [7]) | Herbicidal effect by foliage application, F: southern crabgrass (southern crabgrass [8]) | Herbicidal effect by foliage application, L: windgrass (windgrass [9]) | R: persian speedwell, herbicidal effect grade (persian speedwell [10]) | herbicidal effect on Chinese sprangletop (D) (Chinese sprangletop) | Herbicidal effect, B: Japanese bulrush (Japanese bulrush) | I: wild oat, herbicidal effect grade (wild oat [11]) | Herbicidal effect by foliage application, N: redroot pigweed (redroot pigweed [12]) | L: windgrass, herbicidal effect grade (windgrass [13]) | J: blackgrass, herbicidal effect grade (blackgrass [14]) | Herbicidal effect by foliage application, P: chickweed (chickweed [15]) | Herbicidal effect, C: oval-leafed pondweed (oval-leafed pondweed) | also measured
1 | CCOc1ccccc1-c1sc2cc(F)c(F)cc2c1-c1c(O)c(C)nn(C)c1=O [5-016] | 3 (Herbicidal rate of 40% or more and less than 70%) | 5 (Herbicidal rate of 90% or more (almost completely withered)) | 5 (Herbicidal rate of 90% or more (almost completely withered)) | 5 (Herbicidal rate of 90% or more (almost completely withered)) | 5 (Herbicidal rate of 90% or more (almost completely withered)) | 4 (Herbicidal rate of 70% or more and less than 90%) | 5 (Herbicidal rate of 90% or more (almost completely withered)) | 4 (Herbicidal rate of 70% or more and less than 90%) | 3 (Herbicidal rate of 40% or more and less than 70%) | 4 (Herbicidal rate of 70% or more and less than 90%) | 5 (Herbicidal rate of 90% or more (almost completely withered)) | 5 (Herbicidal rate of 90% or more (almost completely withered)) | 2 (Herbicidal rate of 20% or more and less than 40%) | 1 (Herbicidal rate of 5% or more and less than 20%) | 0 (Herbicidal rate of 5% or less (almost no effect)) | 5 (Herbicidal rate of 90% or more (almost completely withered)) | 5 (Herbicidal rate of 90% or more (almost completely withered)) | 4 (Herbicidal rate of 70% or more and less than 90%) | 5 (Herbicidal rate of 90% or more (almost completely withered)) | 0 (Herbicidal rate of 5% or less (almost no effect)) | N: redroot pigweed, herbicidal effect grade (redroot pigweed [16]): 5 (Herbicidal rate of 90% or more (almost completely withered)); Herbicidal effect by foliage application, K: Italian ryegrass (Italian ryegrass [17]): 3 (Herbicidal rate of 40% or more and less than 70%); Herbicidal effect by foliage application, J: blackgrass (blackgrass [18]): 4 (Herbicidal rate of 70% or more and less than 90%); Herbicidal effect by foliage application, G: green foxtail (green foxtail [19]): 5 (Herbicidal rate of 90% or more (almost completely withered)); Herbicidal effect by foliage application, O: lambsquarters (lambsquarters [20]): 4 (Herbicidal rate of 70% or more and less than 90%); Herbicidal effect by foliage application, I: wild oat (wild oat [21]): 0 (Herbicidal rate of 5% or less (almost no effect)); Herbicidal effect by foliage application, M: velvetleaf (velvetleaf [22]): 5 (Herbicidal rate of 90% or more (almost completely withered)); G: green foxtail, herbicidal effect grade (green foxtail [23]): 5 (Herbicidal rate of 90% or more (almost completely withered)); Herbicidal effect by foliage application, H: barnyard grass (barnyard grass [24]): 5 (Herbicidal rate of 90% or more (almost completely withered)); herbicidal effect on barnyard grass (H) (barnyard grass [25]): 5 (Herbicidal rate of 90% or more (almost completely withered))
2 | Cc1nn(C)c(=O)c(-c2c(-c3ccccc3OC(C)C)sc3cc(F)c(F)cc23)c1O [5-018] | 0 (Herbicidal rate of 5% or less (almost no effect)) | 2 (Herbicidal rate of 20% or more and less than 40%) | 4 (Herbicidal rate of 70% or more and less than 90%) | 5 (Herbicidal rate of 90% or more (almost completely withered)) | 3 (Herbicidal rate of 40% or more and less than 70%) | 0 (Herbicidal rate of 5% or less (almost no effect)) | 1 (Herbicidal rate of 5% or more and less than 20%) | 0 (Herbicidal rate of 5% or less (almost no effect)) | 0 (Herbicidal rate of 5% or less (almost no effect)) | 0 (Herbicidal rate of 5% or less (almost no effect)) | 0 (Herbicidal rate of 5% or less (almost no effect)) | 3 (Herbicidal rate of 40% or more and less than 70%) | 0 (Herbicidal rate of 5% or less (almost no effect)) | 5 (Herbicidal rate of 90% or more (almost completely withered)) | 0 (Herbicidal rate of 5% or less (almost no effect)) | 1 (Herbicidal rate of 5% or more and less than 20%) | 0 (Herbicidal rate of 5% or less (almost no effect)) | 0 (Herbicidal rate of 5% or less (almost no effect)) | 5 (Herbicidal rate of 90% or more (almost completely withered)) | 5 (Herbicidal rate of 90% or more (almost completely withered)) | N: redroot pigweed, herbicidal effect grade (redroot pigweed [16]): 2 (Herbicidal rate of 20% or more and less than 40%); Herbicidal effect by foliage application, K: Italian ryegrass (Italian ryegrass [17]): 0 (Herbicidal rate of 5% or less (almost no effect)); Herbicidal effect by foliage application, J: blackgrass (blackgrass [18]): 1 (Herbicidal rate of 5% or more and less than 20%); Herbicidal effect by foliage application, G: green foxtail (green foxtail [19]): 2 (Herbicidal rate of 20% or more and less than 40%); Herbicidal effect by foliage application, O: lambsquarters (lambsquarters [20]): 0 (Herbicidal rate of 5% or less (almost no effect)); Herbicidal effect by foliage application, I: wild oat (wild oat [21]): 0 (Herbicidal rate of 5% or less (almost no effect)); Herbicidal effect by foliage application, M: velvetleaf (velvetleaf [22]): 4 (Herbicidal rate of 70% or more and less than 90%); G: green foxtail, herbicidal effect grade (green foxtail [23]): 3 (Herbicidal rate of 40% or more and less than 70%); Herbicidal effect by foliage application, H: barnyard grass (barnyard grass [24]): 0 (Herbicidal rate of 5% or less (almost no effect)); herbicidal effect on barnyard grass (H) (barnyard grass [25]): 4 (Herbicidal rate of 70% or more and less than 90%)
